≈ marks a conversion by molar mass, not a printed value. Some results are limits rather than exact numbers.

What is called solubility (kinetic) is the concentration staying in solution when a stock, usually in DMSO, is diluted into the medium.

For the series the following is noted: buffer; pH 7.4; 200.0 µM.
With `Cc1oc(-c2ccccc2)cc1C(=O)NC1CCN(Cc2ccccc2)CC1`, the kinetic solubility is under 0.4 µg/mL. With `CC1CCN(C(=O)COC(=O)c2ccccc2C(=O)c2ccccc2)CC1` the figure was over 54.8 µg/mL; with `Cc1ccc(OCC(O)CN2CCc3ccccc3C2)c(C)c1.Cl` (stereo not given), 30.7 µg/mL; with `Cc1ccc(C(=O)COC(=O)c2cc(=O)[nH]c3ccccc23)cc1`, 1.1 µg/mL (≈ 3.42 µM). In the case of `Cl.FC(F)Sc1ccc(NC2=NCCCCC2)cc1` it was 45 µg/mL; in that of `Cc1ccc(CC(=O)NC2CCN(Cc3ccccc3)CC2)cc1`, 41.7 µg/mL (≈ 129 µM); in that of `O=C(Cc1ccc([N+](=O)[O-])cc1)Nc1ccon1`, 18.3 µg/mL (≈ 74 µM). With `COc1cccc(C2NC(=O)CCC2[N+](=O)[O-])c1OC` (stereo not given) the figure was 39.4 µg/mL (≈ 141 µM); with `Cc1cc(C(=O)N(C)CC(=O)Nc2ccc(F)c(F)c2F)no1`, over 49.1 µg/mL. In turn, `O=C(O)CNC(=O)C(c1ccccc1)c1ccccc1` registered a solubility (kinetic) of over 40.4 µg/mL. In the case of `CN(C)C(=O)Oc1ccc2c(c1)O/C(=C\c1ccccc1)C2=O` it was 0.8 µg/mL (≈ 2.59 µM); in that of `Cc1ccc2c(c1)N=C(c1ccccc1)CC(C(Cl)Cl)=N2`, 7.1 µg/mL (≈ 22.4 µM). In the case of `O=c1[nH]c2ccc(NS(=O)(=O)c3ccc(F)c(Cl)c3)cc2[nH]1` it was 7.5 µg/mL (≈ 21.9 µM); in that of `O=C(O)CN1CCN(C(c2ccccc2)c2ccccc2)CC1`, over 46.6 µg/mL; in that of `O=C(O)C1CCCN1C1=NS(=O)(=O)c2ccccc21` (stereo not given), over 42 µg/mL. As for `COc1ccccc1NCc1cc(=O)oc2c(C)c(O)ccc12`, the solubility (kinetic) amounted to 4.4 µg/mL (≈ 14.1 µM). With `CCCCOc1cc(C(=O)NCCN(CC)CC)c2ccccc2n1.Cl` the figure was over 57 µg/mL. `CCCn1c(N)cc(=O)n(CCC)c1=O`: the solubility (kinetic) was over 31.7 µg/mL.

`COC(=O)c1ccncc1N` had a kinetic solubility of over 22.8 µg/mL.

As for `Fc1cccc(CNc2ncnc3cc(Cl)ccc23)c1F`, the solubility (kinetic) worked out at 3.8 µg/mL (≈ 12.4 µM). Take `COCCCNC(=O)c1c(N)n(Cc2ccco2)c2nc3ccccc3nc12`: the solubility (kinetic) was 4.8 µg/mL (≈ 12.7 µM). In the case of `COc1ccc(CNc2ncccc2[N+](=O)[O-])cc1` it was 17 µg/mL (≈ 65.6 µM); in that of `O=[N+]([O-])c1cccc2nc(-c3ccccc3)c(-c3ccccc3)nc12`, under 0.2 µg/mL; in that of `O=C(CCc1ccc(O)c(O)c1)N/N=C/c1ccc2c(c1)OCO2`, over 49.2 µg/mL. In the case of `C=CCNC(=O)C12CCC(C)(C(=O)[C@H]1Br)C2(C)C` (stereo not given in full) it was over 47.1 µg/mL. With `Cn1c(=O)n(CC(N)=O)c(=O)c2c1nc1n2CCCN1Cc1ccccc1` the figure was 30.8 µg/mL (≈ 83.6 µM); with `N#Cc1c(-c2ccccc2)nc(N2CCN(Cc3ccccc3)CC2)[nH]c1=O`, over 55.7 µg/mL; with `CC1CC(C)(C)CC2(C1)NC(=O)N(CC(=O)N1CCN(S(=O)(=O)c3cccc(F)c3)CC1)C2=O` (stereo not given), 4.9 µg/mL (≈ 9.91 µM). As for `Cc1ccc(SCC(=O)NC2CC3CCC(C2)N3C)cc1` (stereo not given), the kinetic solubility was determined as 45.1 µg/mL (≈ 148 µM).

Take `O=C(O)c1ccccc1C(=O)NCC(O)c1ccccc1` (stereo not given): the kinetic solubility is over 42.8 µg/mL.

The molecule `COc1ccccc1N1CCN(C(=O)c2c(-c3c(F)cccc3Cl)noc2C)CC1` returned a solubility (kinetic) of 52.9 µg/mL (≈ 123 µM). In the case of `Cc1ccc(OCC(=O)Nc2ccc3c(c2)CCC3)c([N+](=O)[O-])n1` it was 2.1 µg/mL (≈ 6.42 µM). In turn, `COc1ccc(CCNC(=O)COC(=O)Cc2ccccc2F)cc1` showed a kinetic solubility of over 51.8 µg/mL. With `CC(=O)Nc1ccc(C(=O)NCC(=O)OCc2ccccc2F)cc1` the figure was 7.5 µg/mL (≈ 21.8 µM); with `Cc1ccc(/C=N/NC(=O)c2cccnc2)s1`, over 36.8 µg/mL. In the case of `CCC(=O)Nc1ccc2c(c1)Cc1cc(NC(=O)CC)ccc1-2` it was 0.5 µg/mL (≈ 1.62 µM); in that of `Oc1c(Cl)cc(CN2CCOCC2)c2cccnc12`, 33.6 µg/mL (≈ 121 µM). With `CC(C)NC(=O)c1ccc2c(c1)N(CC(=O)N1CCCCC1)C(=O)C(C)(C)O2` the figure was 44.8 µg/mL (≈ 116 µM); with `CC(C)Cc1ccc(S(=O)(=O)Nc2ccc3[nH]c(=O)[nH]c3c2)cc1`, 1.1 µg/mL (≈ 3.18 µM); with `CC(C)[C@H](NC(=O)c1ccc([N+](=O)[O-])cc1Cl)C(=O)N1CCN(C/C=C/c2ccccc2)CC1`, 44.3 µg/mL (≈ 91.3 µM). Turning to `O=C(O)COCC(=O)N1CCN(C(c2ccccc2)c2ccccc2)CC1`, the kinetic solubility was over 55.3 µg/mL. As to `O=c1[nH]c2ccc(S(=O)(=O)NCc3ccccc3)cc2[nH]1`, the kinetic solubility came out at 22.5 µg/mL (≈ 74.2 µM). In the case of `Cc1cc(C)cc(NS(=O)(=O)c2ccc(NC(=O)c3ccccc3C(=O)O)cc2)c1` it was 54.2 µg/mL (≈ 128 µM). In the case of `CN(C(=O)c1ccccc1)c1nccnc1C#N` it was over 35.7 µg/mL; in that of `CN(C1CCCCC1)S(=O)(=O)c1cccc2nsnc12`, over 46.7 µg/mL; in that of `O=C(Nc1nccs1)c1ccc(N2C(=O)[C@@H]3[C@H](C2=O)[C@H]2C=C[C@@H]3C2)cc1`, 6.1 µg/mL (≈ 16.7 µM). In the case of `Cc1ccc(-n2c(-c3ccc(Cl)cc3)c[n+]3c2CCC3)cc1.[Br-]` it was over 58.5 µg/mL; in that of `O=C(Nc1cccc(Cl)c1N1CCOCC1)c1cccnc1`, over 47.7 µg/mL; in that of `COc1ccc(-c2ccc(CCC(=O)O)n2NC(=O)c2ccc(O)cc2)cc1`, over 57.1 µg/mL.

Take `CC(C)(C)OC(=O)N1CCC[C@H]1C(=O)Nc1ccc(C#N)cc1`: the solubility (kinetic) turned out to be 40.7 µg/mL (≈ 129 µM).

(Values after PubChem BioAssay AID1996.)
